Measurements taken from patent US20090317807A1, “Primers for Use in Detecting Metallo-Beta-Lactamases” (priority 2006, published 2009).
Converted amounts (≈) assume the structure as drawn.

Assays:
[1] = system: Pseudomonas aeruginosa (IMP-18); assay: Broth microdilution antibiotic susceptibility (MicroScan dehydrated panels, NCCLS criteria); type: cell-based; details: for MIC: Pseudomonas aeruginosa, read-out: Microdilution MICs
Method: The carbapenem-resistant P. aeruginosa isolate investigated in this study was recovered from the tracheal aspirate of a motorcycle accident victim in the southwestern United States.
The isolate was identified by the Phoenix system (Becton Dickinson Diagnostic Systems, Sparks, Md.). Antibiotic susceptibility was determined by broth microdilution method with investigational dehydrated panels provided by Dade Behring MicroScan (Sacramento, Calif.) according to the manufacturer's recommendations and interpreted according to National Committee for Clinical Laboratory Standards (NCCLS) criteria (National Committee for Clinical Laboratory Standards, “Performance Standards for Antimicrobial Susceptibility Testing, Fourteenth informational supplement 24, Wayne, Pa. (2004)).

[2] = system: Pseudomonas aeruginosa (IMP-18); assay: Etest metallo-beta-lactamase strip (imipenem with/without EDTA); type: cell-based
Source text: Metallo-beta-lactamase production was phenotypically investigated by using the Etest metallo-beta-lactamase strip (AB BIODISK, Solna, Sweden).

[3] = carbapenem-resistant P. aeruginosa clinical isolate producing IMP-18, broth microdilution

Molecule	MIC [1, 3] [µg/mL]	also measured
CO/N=C(\C(=O)N[C@@H]1C(=O)N2C(C(=O)O)=C(CSc3nc(=O)c(=O)[nH]n3C)CS[C@H]12)c1csc(N)n1 [Ceftriaxone]	> 64	
Gentamicin		Microdilution MICs [1, 3]: >32 µg/mL
CO/N=C(\C(=O)N[C@@H]1C(=O)N2C(C(=O)[O-])=C(C[N+]3(C)CCCC3)CS[C@H]12)c1csc(N)n1 [Cefepime]	> 64	
Polymyxin B		Microdilution MICs [1, 3]: 4 µg/mL
CN(C)c1ccc(O)c2c1C[C@H]1C[C@H]3[C@H](N(C)C)C(O)=C(C(N)=O)C(=O)[C@@]3(O)C(O)=C1C2=O [Minocycline]	> 128	
C[C@@H](O)[C@H]1C(=O)N2C(C(=O)O)=C(SCCN=CN)C[C@H]12 [Imipenem]	64 (≈ 214 µM)	MIC ([2]; Pseudomonas aeruginosa, without EDTA): ≥ 256 µg/mL; MIC of imipenem by Etest in the presence of EDTA ([2]; in the presence of EDTA): 8 µg/mL; fold reduction in the MIC of imipenem in the presence of EDTA ([2]; with vs without EDTA): ≥ 32 fold
NCC[C@H](O)C(=O)N[C@@H]1C[C@H](N)[C@@H](O[C@H]2O[C@H](CN)[C@@H](O)[C@H](O)[C@H]2O)[C@H](O)[C@H]1O[C@H]1O[C@H](CO)[C@@H](O)[C@H](N)[C@H]1O [Amikacin]	64 (≈ 109 µM)	
CC(C)(O/N=C(\C(=O)N[C@@H]1C(=O)N2C(C(=O)[O-])=C(C[n+]3ccccc3)CS[C@H]12)c1csc(N)n1)C(=O)O [Ceftazidime]	> 64	
C[C@H]1[C@H](NC(=O)/C(=N\OC(C)(C)C(=O)O)c2csc(N)n2)C(=O)N1S(=O)(=O)O [Aztreonam]	32 (≈ 73.5 µM)	
C[C@H]1COc2c(N3CCN(C)CC3)c(F)cc3c(=O)c(C(=O)O)cn1c23 [Levofloxacin]	> 16	
CN(C)c1cc(NC(=O)CNC(C)(C)C)c(O)c2c1C[C@H]1C[C@H]3[C@H](N(C)C)C(O)=C(C(N)=O)C(=O)[C@@]3(O)C(O)=C1C2=O [Tigecycline]		MIC [1]: 32 µg/mL (≈ 54.6 µM)
